Assay results as given in ChEMBL document CHEMBL1201862, “PubChem BioAssay data set” (2004).
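Dose response: 5 concentrations. Exposure: 48 h. Format: 96-well plates. Endpoint: linear interpolation; highest concentration if not reached. GI50 = concentration required for 50% inhibition of growth.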 Activity calls are given as the source filed them. Cut-off read from the data, not from the text of the source: active = GI50 up to about 1.1 µM and inactive = higher.

Assays:
Assay in all cases: DTP human tumour cell line panel, 48 h
OVCAR-3 = tested on: OVCAR-3
DLD-1 = tested on: DLD-1
SNB-78 = tested on: SNB-78
SF-295 = tested on: SF-295
SN12C = tested on: SN12C
HOP-92 = tested on: HOP-92
SK-MEL-5 = tested on: SK-MEL-5
U-251 = tested on: U-251
RXF 393 = tested on: RXF 393
CAKI-1 = tested on: CAKI-1
RXF 631 = tested on: RXF 631
HOP-62 = tested on: HOP-62
UACC-62 = tested on: UACC-62
HCT-116 = tested on: HCT-116
HOP-18 = tested on: HOP-18
RPMI-8226 = tested on: RPMI-8226
SF-539 = tested on: SF-539
TK-10 = tested on: TK-10
UO-31 = tested on: UO-31
HT-29 = tested on: HT-29
M19-MEL = tested on: M19-MEL
LXFL 529 = tested on: LXFL 529
XF498 = tested on: XF498
LOX IMVI = tested on: LOX IMVI
HCT-15 = tested on: HCT-15
SF-268 = tested on: SF-268
786-0 = tested on: 786-0
DMS-273 = tested on: DMS-273
CCRF-CEM = tested on: CCRF-CEM
ACHN = tested on: ACHN
Malme-3M = tested on: Malme-3M
SK-OV-3 = tested on: SK-OV-3
COLO 205 = tested on: COLO 205
SW-620 = tested on: SW-620
MOLT-4 = tested on: MOLT-4
SNB-75 = tested on: SNB-75
EKVX = tested on: EKVX
KM12 = tested on: KM12
M14 = tested on: M14
UACC-257 = tested on: UACC-257
SK-MEL-28 = tested on: SK-MEL-28
OVCAR-4 = tested on: OVCAR-4
IGROV-1 = tested on: IGROV-1
OVCAR-8 = tested on: OVCAR-8
SK-MEL-2 = tested on: SK-MEL-2
SNB-19 = tested on: SNB-19
A549 = tested on: A549
NCI-H23 = tested on: NCI-H23
K562 = tested on: K562
KM-20L2 = tested on: KM-20L2
SR = tested on: SR
NCI-H522 = tested on: NCI-H522
NCI-H226 = tested on: NCI-H226
HL-60 = tested on: HL-60
NCI-H460 = tested on: NCI-H460
OVCAR-5 = tested on: OVCAR-5
DMS-114 = tested on: DMS-114
HCC 2998 = tested on: HCC 2998
A498 = tested on: A498

Measured: GI50

CCOC(=O)c1cnc2[nH]c(=O)c3ccccc3n2c1=O
> 100 µM: HCT-15
inactive: OVCAR-3 > 100 µM | DLD-1 > 100 µM | SNB-78 > 100 µM | SF-295 > 100 µM | SN12C > 100 µM | HOP-92 > 100 µM | SK-MEL-5 > 100 µM | U-251 > 100 µM | RXF 393 > 100 µM | CAKI-1 > 100 µM | RXF 631 > 100 µM | HOP-62 > 100 µM | UACC-62 > 100 µM | HCT-116 > 100 µM | HOP-18 > 100 µM | RPMI-8226 > 100 µM | SF-539 > 100 µM | TK-10 > 100 µM | UO-31 > 100 µM | HT-29 > 100 µM | M19-MEL > 100 µM | LXFL 529 > 100 µM | XF498 > 100 µM | LOX IMVI > 100 µM | SF-268 94.6 µM | 786-0 > 100 µM | DMS-273 > 100 µM | CCRF-CEM > 100 µM | ACHN > 100 µM | Malme-3M > 100 µM | SK-OV-3 > 100 µM | COLO 205 > 100 µM | SW-620 > 100 µM | MOLT-4 > 100 µM | SNB-75 > 100 µM | EKVX > 100 µM | KM12 > 100 µM | M14 > 100 µM | UACC-257 > 100 µM | SK-MEL-28 > 100 µM | OVCAR-4 > 100 µM | IGROV-1 > 100 µM | OVCAR-8 > 100 µM | SK-MEL-2 > 100 µM | SNB-19 > 100 µM | A549 > 100 µM | NCI-H23 > 100 µM | K562 65 µM | KM-20L2 > 100 µM | SR > 100 µM | NCI-H522 > 100 µM | NCI-H226 > 100 µM | HL-60 85.5 µM | NCI-H460 > 100 µM | OVCAR-5 > 100 µM

NC1=NS(=O)(=O)Nc2nc(-c3ccc(Cl)cc3)c(-c3ccc(Cl)cc3)nc21
inactive: OVCAR-3 > 100 µM | DLD-1 > 100 µM | SNB-78 > 100 µM | SF-295 > 100 µM | SN12C > 100 µM | HOP-92 > 100 µM | SK-MEL-5 > 100 µM | U-251 65.8 µM | RXF 393 > 100 µM | CAKI-1 > 100 µM | RXF 631 > 100 µM | HOP-62 > 100 µM | UACC-62 > 100 µM | HCT-116 > 100 µM | HOP-18 > 100 µM | DMS-114 32.1 µM | SF-539 > 100 µM | TK-10 > 100 µM | UO-31 > 100 µM | HT-29 > 100 µM | M19-MEL > 100 µM | LXFL 529 34.9 µM | XF498 69.3 µM | LOX IMVI 29.3 µM | SF-268 > 100 µM | 786-0 > 100 µM | DMS-273 > 100 µM | CCRF-CEM 82.4 µM | HCC 2998 > 100 µM | ACHN > 100 µM | Malme-3M > 100 µM | COLO 205 > 100 µM | SW-620 > 100 µM | MOLT-4 > 100 µM | SNB-75 > 100 µM | KM12 > 100 µM | M14 > 100 µM | UACC-257 > 100 µM | SK-MEL-28 > 100 µM | OVCAR-4 > 100 µM | IGROV-1 > 100 µM | OVCAR-8 > 100 µM | SNB-19 > 100 µM | A549 > 100 µM | NCI-H23 > 100 µM | K562 34 µM | SR > 100 µM | NCI-H522 48 µM | HL-60 > 100 µM | NCI-H460 > 100 µM | OVCAR-5 > 100 µM

Cc1ccc(S(=O)(=O)NC(=O)Nc2nc(Cl)cc(Cl)n2)cc1
inactive: OVCAR-3 > 100 µM | DLD-1 > 100 µM | SNB-78 > 100 µM | SF-295 > 100 µM | SN12C > 100 µM | HOP-92 99.3 µM | SK-MEL-5 > 100 µM | U-251 > 100 µM | RXF 393 > 100 µM | CAKI-1 > 100 µM | RXF 631 > 100 µM | HOP-62 > 100 µM | UACC-62 > 100 µM | HCT-116 > 100 µM | HOP-18 > 100 µM | DMS-114 96.4 µM | RPMI-8226 > 100 µM | SF-539 > 100 µM | TK-10 > 100 µM | UO-31 > 100 µM | M19-MEL > 100 µM | LXFL 529 > 100 µM | XF498 > 100 µM | LOX IMVI > 100 µM | SF-268 > 100 µM | 786-0 > 100 µM | A498 > 100 µM | CCRF-CEM > 100 µM | HCC 2998 28.3 µM | ACHN > 100 µM | Malme-3M > 100 µM | SK-OV-3 > 100 µM | COLO 205 > 100 µM | SW-620 > 100 µM | MOLT-4 57.7 µM | SNB-75 > 100 µM | EKVX > 100 µM | KM12 > 100 µM | M14 > 100 µM | UACC-257 19.2 µM | SK-MEL-28 > 100 µM | OVCAR-4 > 100 µM | IGROV-1 > 100 µM | OVCAR-8 > 100 µM | SK-MEL-2 > 100 µM | SNB-19 > 100 µM | A549 > 100 µM | NCI-H23 > 100 µM | K562 62.2 µM | KM-20L2 > 100 µM | NCI-H522 5.89 µM | NCI-H226 > 100 µM | HL-60 > 100 µM | NCI-H460 > 100 µM | OVCAR-5 > 100 µM
